{
  "source": "patent US11286252B2",
  "about": "“Alkene spirocyclic compounds as farnesoid X receptor modulators” (BRISTOL-MYERS SQUIBB COMPANY, priority 2017, dated 2022)",
  "data": [
    {"target": "T1, human FXR (Homo sapiens, UniProt Q96RI1)", "T1 construct": "expressed in transfected cells; host or cells: HEK293 cells stably carrying a 5xGal4-response-element firefly luciferase reporter, transiently transfected with pcDNA3.1-Gal4-FXR", "T1 sequence (Q96RI1 262-486 limits assumed)": "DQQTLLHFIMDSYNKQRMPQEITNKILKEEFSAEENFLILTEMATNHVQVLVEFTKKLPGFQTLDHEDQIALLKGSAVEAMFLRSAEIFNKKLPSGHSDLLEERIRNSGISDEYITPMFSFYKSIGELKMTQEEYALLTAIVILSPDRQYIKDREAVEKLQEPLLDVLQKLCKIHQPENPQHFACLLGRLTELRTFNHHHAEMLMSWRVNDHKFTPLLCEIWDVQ", "assay": "transient human FXR/Gal4-luciferase reporter assay", "type": "cell-based", "settings": "Gal4-hFXR fusion construct, luciferase reporter HEK293 cells; response relative to 8 μM GW-4064; unit inferred", "protocol": "The exemplified compounds of the present invention were tested in the transient human FXR/Gal4-luciferase reporter assay, and assay results were reported in Table 1 and Examples 1 to 3 together with other analytical data.\nA Gal4-hFXR fusion construct reporter system was used as the primary assay to characterize compound activity. A construct including 5 copies of the Gal4 promoter response element upstream of a firefly luciferase reporter cDNA was stably expressed in HEK293 cells. This reporter cell line was maintained in Dulbecco's Modified Eagle's medium (DMEM; Gibco) supplemented with 1% penicillin-streptomycin (P/S) solution, 500 μg/mL Zeocin and 10% charcoal/dextran-treated fetal bovine serum (cs-FBS) at 37° C. in a humidified 5% CO2 atmosphere. Another plasmid was constructed in which the human cytomegalovirus promoter in the pcDNA3.1 vector directs the expression of the cDNA encoding a fusion protein comprised of the DNA binding domain from the Gal4 transcription factor fused to the ligand binding domain from human FXR.\nThe day prior to transfection, the reporter cells in culture are detached from the plate with trypsin and plated into a T75 flask at a sufficient density to achieve approximately 90% confluence the next morning. The transfection reagents are prepared by separately diluting 25 μg of the pcDNA3.1-Gal4-FXR plasmid into 1.87 mL of Opti-MEM (Thermo-Fisher), and 40 μL of Lipofectamine 2000 (Thermo-Fisher) into 1.87 mL of Opti-MEM, and then adding the diluted DNA solution into the diluted Lipofectamine 2000 solution and incubating at room temperature for 15-20 minutes. The mixture is further diluted with 10 mL of a solution comprised of DMEM, 10% cs-FBS, and 1% P/S immediately prior to transferring to the cells. The maintenance culture media is aspirated from the cells and the final transfection mixture is added before the cells are incubated overnight at 37° C. in a humidified 5% CO2 atmosphere. This protocol can be scaled up, and the transiently transfected cells can be cryopreserved in an assay-ready format.\nFor compound testing, 100 nL of the compounds (serial dilutions in DMSO) are dispensed with an Echo acoustic dispenser (Labcyte) into the wells of a Corning/Costar clear bottom 384-well white plate. The transfected cells are harvested, counted, and diluted such that 10-25,000 cells in 25 μL are plated into each well of the 384-well compound assay plate. The compound-treated cells are incubated overnight at 37° C. in a humidified 5% CO2 atmosphere. The next morning 25 μL of Steady-Glo (Promega) are added to each well of the plate, the mixture is incubated for 15 min. with shaking, and luminescence is measured on an Envision (Perkin Elmer) plate reader. Background counts from cells treated with DMSO alone are subtracted from all raw counts, and the corrected values are converted to a percentage of the control response attained with 8 μM GW-4064.", "units": {"EC50": "nM"}, "values": [
      {"smiles": "O=C(O)c1cc(OCC2CC3(CC(/C=C/c4c(-c5c(Cl)cncc5Cl)noc4C4CC4)C3)C2)n(C2CC2)n1", "note": "(centres unmarked) [Example 60]", "EC50": 34},
      {"smiles": "O=C(O)c1ncc(OCC2CC3(CC(/C=C/c4c(-c5ccccc5C(F)(F)F)noc4C4CC4)C3)C2)cc1OC1CC1", "note": "(centres unmarked) [Example 61]", "EC50": 16},
      {"smiles": "O=C(O)c1ncc(OCC2CC3(CC(/C=C/c4c(-c5ccccc5C(F)(F)F)noc4C4CC4)C3)C2)cc1OC1CCC1", "note": "(centres unmarked) [Example 62]", "EC50": 36},
      {"smiles": "NC(=O)c1ncc(OCC2CC3(CC(/C=C/c4c(-c5ccccc5C(F)(F)F)noc4C4CC4)C3)C2)cc1OC1CCC1", "note": "(centres unmarked) [Example 63]", "EC50": 393},
      {"smiles": "NC(=O)c1ncc(OCC2CC3(CC(/C=C/c4c(-c5ccccc5C(F)(F)F)noc4C4CC4)C3)C2)cc1OC1CC1", "note": "(centres unmarked) [Example 64]", "EC50": 667},
      {"smiles": "NC(=O)c1ncc(OCC2CC3(CC(/C=C/c4c(-c5c(Cl)cncc5Cl)noc4C4CC4)C3)C2)cc1OC1CCC1", "note": "(centres unmarked) [Example 65]", "EC50": 153},
      {"smiles": "CN1CCN(c2cc(C(=O)O)nc3ccc(OCC4CC5(CC(/C=C/c6c(-c7c(Cl)cncc7Cl)noc6C6CC6)C5)C4)cc23)CC1", "note": "(centres unmarked) [Example 66]", "EC50": 188},
      {"smiles": "CN1CCN(c2cc(C(=O)O)nc3ccc(OCC4CC5(CC(/C=C/c6c(-c7ccccc7C(F)(F)F)noc6C6CC6)C5)C4)cc23)CC1", "note": "(centres unmarked) [Example 67]", "EC50": 302}
    ]}
  ]
}
